Results: patent publication US11708348B2, “Protease inhibitors for treatment of coronavirus infections” (The Scripps Research Institute, priority 2021, dated 2023)

System: SARS-CoV-2 strain USA-WA1/2020
Assay: microbe, parasite or virus in culture
Type: cell-based
Conditions: Severe acute respiratory syndrome coronavirus 2, HeLa-ACE2, 24 h, HeLa-ACE2 cells, SARS-CoV-2 infection, 24 h; bound printed in cell; read-out: EC50, uM (Hela)

`C=C[C@@H]1C[C@]1(NC(=O)c1cc2cc(F)ccc2[nH]1)C(=O)N[C@@H](C[C@@H]1CCNC1=O)C(=O)COC(F)(F)F` [Compound 259, 5-fluoro-N-((1R,2S)-1-(((S)-3-oxo-1-((S)-2-oxopyrrolidin-3-yl)-4-(trifluoromethoxy)butan-2-yl)carbamoyl)-2-vinylcyclopropyl)-1H-indole-2-carboxamide] gave an EC50 of over 1 µM.

Same assay, conditions: Severe acute respiratory syndrome coronavirus 2, HeLa-ACE2, 24 h, HeLa-ACE2 cells, SARS-CoV-2 infection, 24 h; class symbols; read-out: EC50, uM (Hela)

`CC(C)C[C@H](NC(=O)C(=O)Nc1cccc(F)c1F)C(=O)N[C@@H](C[C@@H]1CCNC1=O)C(=O)COc1c(F)c(F)cc(F)c1F` [Compound 71, N1-(2,3-difluorophenyl)-N2-((S)-4-methyl-1-oxo-1-(((S)-3-oxo-1-((S)-2-oxopyrrolidin-3-yl)-4-(2,3,5,6-tetrafluorophenoxy)butan-2-yl)amino)pentan-2-yl)oxalamide] and `CC(C)C[C@H](NC(=O)c1ccccc1)C(=O)N[C@@H](C[C@@H]1CCNC1=O)C(=O)COc1c(F)c(F)cc(F)c1F` [Compound 9, N-((S)-4-methyl-1-oxo-1-(((S)-3-oxo-1-((S)-2-oxopyrrolidin-3-yl)-4-(2,3,5,6-tetrafluorophenoxy)butan-2-yl)amino)pentan-2-yl)benzamide] fall in the same range of EC50: 0.05 to 0.2 µM for the first, 0.05 to 0.2 µM for the second.

Same assay, conditions: Severe acute respiratory syndrome coronavirus 2, HeLa-ACE2, 24 h, HeLa-ACE2 cells, SARS-CoV-2 infection, 24 h; read-out: EC50, uM (Hela)

First: CC(C)(C)NC(=O)C(=O)N1CC2(CCCC2)CC1C(=O)N[C@@H](C[C@@H]1CCNC1=O)C(=O)COC(F)(F)F (stereo partly drawn) [Compound 657, 2-(2-(tert-butylamino)-2-oxoacetyl)-N-((S)-3-oxo-1-((S)-2-oxopyrrolidin-3-yl)-4-(trifluoromethoxy)butan-2-yl)-2-azaspiro[4.4]nonane-3-carboxamide]
Second: CC(C)(NC(=O)C(=O)N1CC2(CC2)C[C@H]1C(=O)N[C@@H](C[C@@H]1CCNC1=O)C(=O)COC(F)(F)F)C(F)(F)F [Compound 590, (S)-N-((S)-3-oxo-1-((S)-2-oxopyrrolidin-3-yl)-4-(trifluoromethoxy)butan-2-yl)-5-(2-oxo-2-((1,1,1-trifluoro-2-methylpropan-2-yl)amino)acetyl)-5-azaspiro[2.4]heptane-6-carboxamide]
The EC50 of the first is lower: under 0.05 µM for the first, 0.05 to 0.2 µM for the second.

`O=C1NCC[C@H]1C[C@H](NC(=O)[C@@H]1CC2(CC2)CN1C(=O)[C@H](O)C/C=C/c1ccc(F)cc1)C(=O)COC(F)(F)F` [Compound 667, (S)-5-((R,E)-5-(4-fluorophenyl)-2-hydroxypent-4-enoyl)-N-((S)-3-oxo-1-((S)-2-oxopyrrolidin-3-yl)-4-(trifluoromethoxy)butan-2-yl)-5-azaspiro[2.4]heptane-6-carboxamide] and `CC(C)CC(=O)N1CC2(CC2)C[C@H]1C(=O)N[C@@H](C[C@@H]1CCNC1=O)C(=O)COC(F)(F)F` [Compound 707, (S)-5-(3-methylbutanoyl)-N-((S)-3-oxo-1-((S)-2-oxopyrrolidin-3-yl)-4-(trifluoromethoxy)butan-2-yl)-5-azaspiro[2.4]heptane-6-carboxamide] fall in the same range of EC50: 0.05 to 0.2 µM for the first, 0.05 to 0.2 µM for the second.

First: CC(C)C[C@H](NC(=O)c1ncon1)C(=O)N[C@@H](C[C@@H]1CCNC1=O)C(=O)COC(F)(F)F [Compound 580, N-((S)-4-methyl-1-oxo-1-(((S)-3-oxo-1-((S)-2-oxopyrrolidin-3-yl)-4-(trifluoromethoxy)butan-2-yl)amino)pentan-2-yl)-1,2,4-oxadiazole-3-carboxamide]
Second: CC1(NC(=O)C(=O)N[C@@H](CC2CC2)C(=O)N[C@@H](C[C@@H]2CCNC2=O)C(=O)COC(F)(F)F)CC1 [Compound 585, N1-((S)-3-cyclopropyl-1-oxo-1-(((S)-3-oxo-1-((S)-2-oxopyrrolidin-3-yl)-4-(trifluoromethoxy)butan-2-yl)amino)propan-2-yl)-N2-(1-methylcyclo-propyl)oxalamide]
The EC50 of the first is higher: 0.2 to 0.5 µM for the first, under 0.05 µM for the second. The second is the more potent here.

`O=C1NCC[C@H]1C[C@H](NC(=O)[C@@H]1C[C@@H](c2ccccc2)CN1C(=O)[C@@H](O)c1ccccc1)C(=O)COC(F)(F)F` [Compound 780, (2S,4S)-1-((S)-2-hydroxy-2-phenylacetyl)-N-((S)-3-oxo-1-((S)-2-oxopyrrolidin-3-yl)-4-(trifluoromethoxy)butan-2-yl)-4-phenylpyrrolidine-2-carboxamide] and `Cc1ccccc1NC(=O)C(=O)N1C[C@H]2[C@@H]([C@H]1C(=O)N[C@@H](C[C@@H]1CCNC1=O)C(=O)COC(F)(F)F)C2(C)C` [Compound 473, (1R,2S,5S)-6,6-dimethyl-N-((S)-3-oxo-1-((S)-2-oxopyrrolidin-3-yl)-4-(trifluoromethoxy)butan-2-yl)-3-(2-oxo-2-(o-tolylamino)acetyl)-3-azabicyclo[3.1.0]hexane-2-carboxamide] cannot be ordered by EC50: under 0.05 µM for the first, under 0.05 µM for the second.

First: O=C(Nc1ccccc1F)C(=O)N1CC2(CCOCC2)CC1C(=O)N[C@@H](C[C@@H]1CCNC1=O)C(=O)COC(F)(F)F (stereo partly drawn) [Compound 530, 2-(2-((2-fluorophenyl)amino)-2-oxoacetyl)-N-((S)-3-oxo-1-((S)-2-oxopyrrolidin-3-yl)-4-(trifluoromethoxy)butan-2-yl)-8-oxa-2-azaspiro[4.5]decane-3-carboxamide]
Second: CC(C)(C)c1ccccc1NC(=O)C(=O)N1C[C@@H]2CCC[C@@H]2[C@H]1C(=O)N[C@@H](C[C@@H]1CCNC1=O)C(=O)COC(F)(F)F [Compound 615, (1S,3aR,6aS)-2-(2-((2-(tert-butyl)phenyl)amino)-2-oxoacetyl)-N-((S)-3-oxo-1-((S)-2-oxopyrrolidin-3-yl)-4-(trifluoromethoxy)butan-2-yl)octahydrocyclopenta[c]pyrrole-1-carboxamide]
The EC50 of the first is higher: 0.5 to 1 µM for the first, under 0.05 µM for the second. The second is the more potent here.

First: CC1(C)[C@@H]2[C@@H](C(=O)N[C@@H](C[C@@H]3CCCNC3=O)C(=O)COC(F)(F)F)N(C(=O)C(=O)NC3CCCCC3)C[C@@H]21 [Compound 470, (1R,2S,5S)-3-(2-(cyclohexylamino)-2-oxoacetyl)-6,6-dimethyl-N-((S)-3-oxo-1-((S)-2-oxopiperidin-3-yl)-4-(trifluoromethoxy)butan-2-yl)-3-azabicyclo[3.1.0]-hexane-2-carboxamide]
Second: O=C(NC1CC1)C(=O)N1C[C@@H]2CCC[C@@H]2[C@H]1C(=O)N[C@@H](C[C@@H]1CCNC1=O)C(=O)COC(F)(F)F [Compound 497, (1S,3aR,6aS)-2-(2-(cyclopropylamino)-2-oxoacetyl)-N-((S) -3-oxo-1-((S)-2-oxopyrrolidin-3-yl)-4-(trifluoromethoxy)butan-2-yl)octahydrocyclo-penta[c]pyrrole-1-carboxamide]
The EC50 of the first is lower: under 0.05 µM for the first, 0.05 to 0.2 µM for the second.

`CC1(C)[C@@H]2[C@@H](C(=O)N[C@@H](C[C@@H]3CCNC3=O)C(=O)COC(F)(F)F)N(C(=O)c3cc(F)cc(F)c3O)C[C@@H]21` [Compound 594, (1R,2S,5S)-3-(3,5-difluoro-2-hydroxybenzoyl)-6,6-dimethyl-N-((S)-3-oxo-1-((S)-2-oxopyrrolidin-3-yl)-4-(trifluoromethoxy)butan-2-yl)-3-azabicyclo-[3.1.0]hexane-2-carboxamide] and `CC(C)C[C@@H](O)C(=O)N(C(=O)[C@@H]1C[C@@]2(C)C[C@H]2N1)[C@@H](C[C@@H]1CCNC1=O)C(=O)COC(F)(F)F` [Compound 449, (1R,3S,5R)-2-((R)-2-hydroxy-4-methylpentanoyl)-5-methyl-N-((S)-3-oxo-1-((S)-2-oxopyrrolidin-3-yl)-4-(trifluoromethoxy)butan-2-yl)-2-azabicyclo[3.1.0]-hexane-3-carboxamide] fall in the same range of EC50: 0.05 to 0.2 µM for the first, 0.05 to 0.2 µM for the second.
